Results: US20110028495A1, “THE USE OF 6-HALOGENO-[1,2,4]-TRIAZOLO-[1,5-a]-PYRIMIDINE COMPOUNDS FOR COMBATING PESTS IN AND ON ANIMALS” (priority 2007, published 2011)

Experiments:
[1] = test system: Caenorhabditis elegans; assay: Activity against Caenorhabditis elegans (L1 larval motility); conditions: L1 C. elegans, dose response assay, read-out: EC50 (reduction in motility of L1 larvae)
Procedure: B.2 Activity Against Caenorhabditis elegans
(§1) The compounds were formulated in 100% DMSO and were tested in microtiter plates containing 50 μl nematode growth media, 1% E. coli and 20 L1 C. elegans. The efficacy of a compound was determined based on the motility of the larvae as compared to average motility of control wells containing DMSO only. Compounds with >80% reduction in motility were tested in a dose response assay to determine EC50 values.

[2] = test system: brown dog ticks; assay: Efficacy against ticks in dogs (spot-on); type: in vivo, brown dog ticks on dogs; conditions: 20 mg/kg, days 9, 16 and 23, compared to the placebo group
Text: (§2) B.7 Study to Evaluate Efficacy of Compounds Against Fleas and Ticks in Dogs
(§3) Dogs were infested with 100 cat fleas on days −1, 8, 15, 22, 29, and 36, and 50 brown dog ticks on days −1, 7 14, 21, 28, and 35. Infested dogs receive a treatment of a compound or placebo in the form of spot-on applied at the middle of the neck between the shoulder blades. Live fleas and ticks were removed and counted on days 2, 9, 16, 23, 30, and 37.

[3] = test system: Cat flea (Ctenocephalides felis); assay: Ingestion assay with Ctenocephalides felis (treated cow blood); conditions: po, adult C. felis fed treated cow blood, 72 hours post treatment, read-out: EC50 (mortality of C. felis)
Procedure: B.5 Activity Against Cat Flea (Ctenocephalides felis)
B.5.1 Ingestion Assay with Ctenocephalides felis
The compounds were formulated in 100% DMSO and were diluted with fresh cow blood to final testing concentrations of 50 ppm, 12.5 ppm, 3.125 ppm, 0.78 ppm and 0.195 ppm. Ten adult C. felis were loaded into testing cages and exposed to blood containing the test compound for up to 72 hours. Blood was changed at 24 hour intervals until the test was completed and kept at 37° C. for duration of the test. The efficacy of a compound was determined based on mortality of C. felis at 72 hours post treatment.

[4] = test system: cat fleas; assay: Efficacy against fleas in dogs (spot-on); type: in vivo, cat fleas on dogs; conditions: 20 mg/kg, days 9, 16 and 23, compared to the placebo group
Text: as §2, §3

[5] = test system: Mediterranean fruitfly (Ceratitis capitata); assay: Activity against Mediterranean fruitfly (eggs/hatched larvae, microtiter plate); conditions: 144 h, eggs sprayed, 6 days, compared to 0% mortality of untreated controls
Procedure: B.1 Activity Against Mediterranean Fruitfly (Ceratitis capitata)
The compounds were formulated in 1:3 DMSO:water. 50 to 80 eggs were placed into microtiterplates filled with 0.5% agar-agar and 14% diet in water. The eggs were sprayed with 5 μl of the test solution, the plates were sealed with pierced foils and kept at 27-29° C. and 75-85% humidity under fluorescent light for 6 days. Mortality was assessed on the basis of the agility of the hatched larvae. Tests were replicated 2 times.

[6] = test system: Yellowfever mosquito (Aedes aegypti); assay: Activity against yellowfever mosquito (neonate larval motility); conditions: neonate A. aegypti larvae, dose response assay
Procedure: B.4. Activity Against Yellowfever Mosquito (Aedes aegypti)
as §1, with “180 ul X Luria Broth media” for “50 μl nematode growth media, 1% E. coli”, “10 neonate A. aegypti larvae.” for “20 L1 C. elegans.”

Structure (SMILES) | EC50 [1] [µg/mL] | LC50 [3] [µg/mL] | also measured
Cc1nc2ncnn2c(N[C@@H](C)c2ccc(OC(F)(F)C(F)F)cc2)c1Cl [C.I.40] | < 10 | – | –
CCc1nc2ncnn2c(N[C@H]2CC[C@@H](C(C)(C)C)CC2)c1Cl [C.I.20] | – | < 50 | efficacy against ticks [2]: > 80%; efficacy against fleas [4]: > 80%
CCc1nc2ncnn2c(NC2CCC(C(C)C)CC2)c1Cl (stereo not shown) [C.I.17] | – | < 50 | –
CCc1nc2ncnn2c(NC2CCC(C(C)CC)CC2)c1Cl (stereo not shown) [C.I.18] | – | < 50 | –
CCc1nc2nc([S+](C)[O-])nn2c(N[C@@H](C)c2ccc(C)cc2)c1Cl (stereo partly shown) [C.I.56] | < 10 | – | –
Cc1nc2ncnn2c(N[C@@H](C)c2ccc3ccccc3c2)c1Cl [C.I.37] | – | < 50 | –
Cc1nc2ncnn2c(NC(C)c2ccc(OC(F)(F)CF)cc2)c1Cl (racemic) [C.I.38] | – | < 50 | mortality at 2500 ppm [5]: > 75%
CCC(C)[C@H]1CC[C@@H](Nc2c(Cl)c(C)nc3ncnn23)CC1 (stereo partly shown) [C.I.5] | – | < 50 | –
Cc1nc2ncnn2c(NCc2ccc(Oc3ccc(Cl)cc3)cc2)c1Cl [C.I.10] | < 10 | < 50 | –
CCC(Nc1c(Cl)c(C)nc2ncnn12)c1ccc(OC(F)(F)C(F)C(F)(F)F)cc1 (stereo not shown) [C.I.43] | < 10 | – | mortality at 2500 ppm [5]: > 75%
CCc1nc2ncnn2c(NC(C)c2ccc(-c3ccccc3)cc2)c1Cl (racemic) [C.I.59] | < 10 | – | –
Cc1nc2ncnn2c(N[C@H]2CC[C@@H](C(F)(C(F)(F)F)C(F)(F)F)CC2)c1Cl [C.I.34] | < 10 | < 50 | –
CCc1nc2ncnn2c(NCCc2ccc(OC(F)(F)F)cc2)c1Cl [C.I.32] | < 10 | – | –
CCc1nc2ncnn2c(N[C@@H](C)c2ccc(Cl)cc2)c1Cl [C.I.22] | – | – | mortality at 2500 ppm [5]: > 75%
Cc1nc2ncnn2c(NC2CCC(C)CC2)c1Cl (stereo not shown) [C.I.1] | < 10 | – | –
CCc1nc2ncnn2c(NC(CC)c2ccc(OC(F)(F)C(F)C(F)(F)F)cc2)c1Cl (stereo not shown) [C.I.53] | – | – | mortality at 2500 ppm [5]: > 75%
Cc1nc2ncnn2c(NCc2ccc(Oc3ccc(Br)cc3)cc2)c1Cl [C.I.11] | < 10 | < 50 | –
CCc1nc2ncnn2c(N[C@H]2CC[C@@H](CCC(F)(F)F)CC2)c1Cl [C.I.45] | < 10 | – | –
CCc1nc2ncnn2c(NC(C)c2ccc(OC(F)(F)CF)cc2)c1Cl (racemic) [C.I.49] | – | – | mortality at 2500 ppm [5]: > 75%
CCc1nc2ncnn2c(N[C@@H](C)c2ccc(OC(F)F)cc2)c1Cl [C.I.31] | – | < 50 | EC50 (reduction in motility of larvae) [6]: < 1 ppm
Cc1nc2ncnn2c(NCc2ccc(Oc3ccc(Cl)c(Cl)c3)cc2)c1Cl [C.I.12] | < 10 | – | –
CCc1nc2ncnn2c(N[C@@H](C)c2cccc(OCc3ccccc3)c2)c1Cl [C.I.58] | < 10 | – | –
CCc1nc2ncnn2c(N[C@@H](C)c2ccc(Br)cc2)c1Cl [C.I.23] | < 10 | – | –
CCc1nc2ncnn2c(N[C@H]2CC[C@@H](C(F)(C(F)(F)F)C(F)(F)F)CC2)c1Cl [C.I.46] | < 10 | – | –
CCc1nc2nc(C)nn2c(N[C@H]2CC[C@@H](C(C)(C)C)CC2)c1Cl [C.I.55] | – | – | mortality at 2500 ppm [5]: > 75%
Cc1nc2ncnn2c(NC2CCC(C(C)C)CC2)c1Cl (stereo not shown) [C.I.2] | < 10 | – | –
